Reference: US5733913A, “6-Aryl pyrido[2,3-d] pyrimidines and naphthyridines for inhibiting protein tyrosine kinase mediated cellular proliferation” (priority 1995, dated 1998)
Where two headings read alike, the source gives them in different places.

What was measured:
Type in all cases: biochemical
[1] = molecular target: T1, human FGF-1 (flg) receptor tyrosine kinase (Homo sapiens, UniProt P11362); assay: FGF receptor tyrosine kinase assay; details: for IC50: read-out: Inhibition of Protein Tyrosine Kinases, FGF, IC50; for inhibition at 50 µM: read-out: Inhibition of Protein Tyrosine Kinases, FGF, % Inhibition
T1 construct: a fragment of DNA that codes for the intracellular tyrosine kinase domain; made in house; host or cells: Sf9 insect cells (baculovirus), cell lysate
Source text: (§1) PDGF and FGF Receptor Tyrosine Kinase Assays
(§2) Full length cDNAs for the mouse PDGF-β and human FGF-1 (flg) receptor tyrosine kinases were obtained from J. Escobedo and prepared as described in J. Biol. Chem., 262:1482-1487 (1991), and PCR primers were designed to amplify a fragment of DNA that codes for the intracellular tyrosine kinase domain. The fragment was melded into a baculovirus vector, cotransfected with AcMNPV DNA, and the recombinant virus isolated. SF9 insect cells were infected with the virus to overexpress the protein, and the cell lysate was used for the assay. […] Briefly, to each well was added 82.5 μL of incubation buffer containing 25 mM Hepes (pH 7.0), 150 mM NaCl, 0.1% Triton X-100, 0.2 mM PMSF, 0.2 mM Na3 VO4, 10 mM MnCl2, and 750 μg/mL of Poly (4:1) glutamate-tyrosine followed by 2.5 μL of inhibitor and 5 μL of enzyme lysate (7.5 μg/μL FGF-TK or 6.0 μg/μL PDGF-TK) to initiate the reaction. Following a 10 minute incubation at 25° C., 10 μL of γ^32 P-ATP (0.4 μCi plus 50 μM ATP) was added to each well and samples were incubated for an additional 10 minutes at 25° C. The reaction was terminated by the addition of 100 μL of 30% trichloroacetic acid (TCA) containing 20 mM sodium pyrophosphate and precipitation of material onto glass fiber filter mats (Wallac). […] Nonspecific activity was defined as radioactivity retained on the filters following incubation of samples with buffer alone (no enzyme). Specific enzymatic activity was defined as total activity (enzyme plus buffer) minus nonspecific activity.

[2] = molecular target: T2, mouse PDGF-β receptor tyrosine kinase (Mus musculus, UniProt P05622); assay: PDGF receptor tyrosine kinase assay; details: for IC50: read-out: Inhibition of Protein Tyrosine Kinases, PDGF, IC50; for inhibition at 50 µM: read-out: Inhibition of Protein Tyrosine Kinases, PDGF, % Inhibition
T2 construct: a fragment of DNA that codes for the intracellular tyrosine kinase domain; made in house; host or cells: Sf9 insect cells (baculovirus), cell lysate
Source text: as §1, §2

C-src kinase = molecular target: T3, C-src kinase (Homo sapiens, UniProt P12931); assay: C-src kinase assay; details: for inhibition at 50 µM: read-out: Inhibition of Protein Tyrosine Kinases, C-src, % Inhibition
T3 construct: made in house; host or cells: baculovirus-infected insect cells
Description: V-src and C-src Kinase Assays
V-src or C-src kinase is purified from baculovirus infected insect cell lysates using an antipeptide monoclonal antibody directed against the N-terminal 2-17 amino acids. The antibody, covalently linked to 0.65-μm latex beads, is added to a suspension of insect cell lysis buffer comprised of 150 mM NaCl, 50 mM Tris pH 7.5, 1 mM DTT, 1% NP-40, 2 mM EGTA, 1 mM sodium vanadate, 1 mM PMSF, 1 μg/mL each of leupeptin, pepstatin, and aprotinin. […] At the end of the lysate incubation, the beads are rinsed 3 times in lysis buffer, resuspended in lysis buffer containing 10% glycerol, and frozen. These latex beads are thawed, rinsed three times in assay buffer which is comprised of 40 mM tris pH 7.5, 5 mM MgCl2, and suspended in the same buffer. In a Millipore 96-well plate with a 0.65 μm polyvinylidine membrane bottom are added the reaction components: 10-μL v-src or c-src beads, 10 μL of 2.5 mg/mL poly GluTyr substrate, 5 μM ATP containing 0.2 μCi labeled ^32 P-ATP, 5μL DMSO containing inhibitors or as a solvent control, and buffer to make the final volume 125 μL. The reaction is started at room temperature by addition of the ATP and quenched 10 minutes later by the addition of 125 μL of 30% TCA, 0.1M sodium pyrophosphate for 5 minutes on ice. The plate is then filtered and the wells washed with two 250-μL aliquots of 15% TCA, 0.1M pyrophosphate. The filters are punched, counted in a liquid scintillation counter, and the data examined for inhibitory activity in comparison to a known inhibitor such as erbstatin. The method is described more fully in J. Med. Chem., 37:598-609 (1994).

[3] = read-out: Inhibition of Protein Tyrosine Kinases, C-src, IC50

T3 sequence (P12931 whole entry): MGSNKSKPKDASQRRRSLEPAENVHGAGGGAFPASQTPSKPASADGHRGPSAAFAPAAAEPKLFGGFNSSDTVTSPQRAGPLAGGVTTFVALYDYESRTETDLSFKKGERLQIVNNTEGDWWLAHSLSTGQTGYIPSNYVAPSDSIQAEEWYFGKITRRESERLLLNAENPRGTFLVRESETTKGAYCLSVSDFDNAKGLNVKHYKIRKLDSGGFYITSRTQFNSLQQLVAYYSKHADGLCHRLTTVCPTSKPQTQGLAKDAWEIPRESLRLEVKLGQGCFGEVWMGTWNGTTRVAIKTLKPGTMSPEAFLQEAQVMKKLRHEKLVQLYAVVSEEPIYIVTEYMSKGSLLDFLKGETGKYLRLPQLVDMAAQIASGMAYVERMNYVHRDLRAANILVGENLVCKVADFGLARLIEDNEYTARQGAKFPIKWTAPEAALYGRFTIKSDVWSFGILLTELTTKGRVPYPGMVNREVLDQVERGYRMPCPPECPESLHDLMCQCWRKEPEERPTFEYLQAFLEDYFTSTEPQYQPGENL
T1 sequence (P11362 478-767 limits assumed): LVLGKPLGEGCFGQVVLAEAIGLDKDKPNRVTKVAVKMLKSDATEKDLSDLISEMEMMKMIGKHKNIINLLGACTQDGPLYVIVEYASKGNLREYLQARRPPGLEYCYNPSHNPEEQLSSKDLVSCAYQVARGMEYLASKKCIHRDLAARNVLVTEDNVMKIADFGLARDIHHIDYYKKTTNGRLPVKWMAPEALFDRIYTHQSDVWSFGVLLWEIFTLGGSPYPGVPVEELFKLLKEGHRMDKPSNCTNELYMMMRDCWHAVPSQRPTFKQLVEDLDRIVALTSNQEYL
T2 sequence (P05622 599-961 limits assumed): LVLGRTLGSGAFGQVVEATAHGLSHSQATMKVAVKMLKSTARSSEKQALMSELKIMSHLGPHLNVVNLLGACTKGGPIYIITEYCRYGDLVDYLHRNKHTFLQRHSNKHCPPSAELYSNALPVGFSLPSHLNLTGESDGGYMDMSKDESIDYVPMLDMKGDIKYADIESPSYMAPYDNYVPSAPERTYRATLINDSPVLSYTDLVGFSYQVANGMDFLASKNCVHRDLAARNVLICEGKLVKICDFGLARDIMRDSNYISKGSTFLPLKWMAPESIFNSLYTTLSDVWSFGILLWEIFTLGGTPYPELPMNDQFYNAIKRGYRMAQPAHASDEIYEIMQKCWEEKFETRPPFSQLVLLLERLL

Row | Structure (SMILES) | IC50 [1] | IC50 [2] | IC50 (C-src kinase; [3]) | other results
1 | CCCNC(=O)Nc1nc2nc(N)ncc2cc1-c1c(Cl)cccc1Cl [Example 26, 1-[2-Amino-6-(2,6-dichlorophenyl)-pyrido[2,3-d]pyrimidin-7-yl]-3-propyl-ure] | 116 nM | 1080 nM | 39.5 nM | –
2 | CN(C)CC(C)(C)CNc1ncc2cc(-c3c(Cl)cccc3Cl)c(NC(=O)NC(C)(C)C)nc2n1 [Example 30, 1-tert-Butyl-3-[6-(2,6-dichlorophenyl)-2-[3-dimethylamino-2,2-dimethyl-propylamino)-pyrido[2,3-d]pyrimidin-7-yl]-urea] | 264 nM | 1780 nM | – | inhibition at 50 µM (C-src kinase): 46.8%
3 | CC1CCCCN1CCCNc1ncc2cc(-c3c(Cl)cccc3Cl)c(NC(=O)NC(C)(C)C)nc2n1 (stereo not drawn) [Example 32, 1-tert-Butyl-3-{6-(2,6-dichlorophenyl)-2-[3-(2-methyl-piperidin-1-yl)-propylamino]-pyrido[2,3-d]pyrimidin-7-yl}-urea] | – | 415 nM | 5000 nM | –
4 | CN1CCN(CCCCNc2ncc3cc(-c4c(Cl)cccc4Cl)c(NC(=O)NC(C)(C)C)nc3n2)CC1 [Example 34, 1-tert-Butyl-3-{6-(2,6-dichlorophenyl)-2-[4-(4-methyl-piperazin-1-yl)-butylamino]-pyrido[2,3-d]pyrimidin-7-yl}-urea] | – | 349 nM | 11 nM | –
5 | CN1CCN(CCCNc2ncc3cc(-c4c(Cl)cccc4Cl)c(NC4=NCCCO4)nc3n2)CC1 [Example 35, 6-(2,6-Dichlorophenyl)-N^7-(5,6-dihydro-4H-[1,3]oxazin-2-yl)-N^2-[3-(4-methyl-piperazin-1-yl)-propyl]-pyrido[2,3-d]pyrimidine-2,7-diamine] | – | 2080 nM | – | inhibition at 50 µM [1]: 97.9%
6 | CN1CCN(CCCNc2ncc3cc(-c4c(Cl)cccc4Cl)c(N)nc3n2)CC1 [Example 36, N^2-[3-(4-methyl-piperazin-1-yl)-propyl]-6-(2,6-dichlorophenyl)-pyrido[2,3-d]pyrimidine-2,7-diamine] | 523 nM | 22900 nM | 184 nM | –
7 | CN1CCN(CCCNc2ncc3cc(-c4c(Cl)cccc4Cl)c(NC(=O)NC4CCCCC4)nc3n2)CC1 [Example 37, 1-Cyclohexyl-3-{6-(2,6-dichlorophenyl)-2-[3-(4-methyl-piperazin-1-yl)-propylamino]-pyrido[2,3-d]pyrimidin-7-yl}-urea] | – | – | – | inhibition at 50 µM (C-src kinase): 106%
8 | CC(C)NC(=O)Nc1nc2nc(NCCCN3CCN(C)CC3)ncc2cc1-c1c(Cl)cccc1Cl [Example 38] | 47 nM | 360 nM | 19 nM | –
9 | CN1CCN(CCCNc2ncc3cc(-c4c(Cl)cccc4Cl)c(NC(=O)NCc4ccccc4)nc3n2)CC1 [Example 39, 1-Benzyl-3-{6-(2,6-dichlorophenyl)-2-[3-(4-methyl-piperazin-1-yl)-propylamino]-pyrido[2,3-d]pyrimidin-7-yl}-urea] | – | – | 21 nM | –
10 | C=CCNC(=O)Nc1nc2nc(NCCCN3CCN(C)CC3)ncc2cc1-c1c(Cl)cccc1Cl [Example 40, 1-Allyl-3-{6-(2,6-dichlorophenyl)-2-[3-(4-methyl-piperazin-1-yl)-propylamino]-pyrido[2,3-d]pyrimidin-7-yl}-urea] | 57.4 nM | 697 nM | – | –
11 | COc1ccc(NC(=O)Nc2nc3nc(NCCCN4CCN(C)CC4)ncc3cc2-c2c(Cl)cccc2Cl)cc1 [Example 41, 1-{6-(2,6-Dichlorophenyl)-2-[3-(4-methyl-piperazin-1-yl)-propylamino]-pyrido[2,3-d]pyrimidin-7-yl}-3-(4-methoxy-phenyl)-urea] | – | – | 86 nM | –
12 | COc1cccc(NC(=O)Nc2nc3nc(NCCCN4CCN(C)CC4)ncc3cc2-c2c(Cl)cccc2Cl)c1 [Example 42, 1-{6-(2,6-Dichlorophenyl)-2-[3-(4-methyl-piperazin-1-yl)-propylamino]-pyrido[2,3-d]pyrimidin-7-yl}-3-(3-methoxy-phenyl)-urea] | – | 624 nM | 32 nM | –
13 | CN1CCN(CCCNc2ncc3cc(-c4c(Cl)cccc4Cl)c(NC(=O)Nc4cccc5ccccc45)nc3n2)CC1 [Example 50, 1-{6-(2,6-Dichlorophenyl)-2-[3-(4-methyl-piperazin-1-yl)-propylamino]-pyrido[2,3-d]pyrimidin-7-yl}-3-naphthalen-1-yl-urea] | 305 nM | 2600 nM | – | –
14 | Nc1ncc2cc(-c3c(Br)cccc3Br)c(N)nc2n1 [Example 60, 6-(2,6-Dibromo-phenyl)-pyrido[2,3-d]pyrimidine-2,7-diamine] | 13000 nM | – | – | IC50 (C-src kinase): 1570 nM
15 | Cc1cc(C)c(C)c(-c2cc3cnc(N)nc3nc2NC(=O)NC(C)(C)C)c1C [Example 99, 1-[2-Amino-6-(2,3,5,6-tetramethyl-phenyl)-pyrido[2,3-d]pyrimidin-7-yl]-3-tert-butyl-urea] | – | – | – | inhibition at 50 µM (C-src kinase): 17.1%
16 | Nc1ncc2cc(-c3ccncc3)c(N)nc2n1 [Example 109, 6-Pyridin-4-yl-pyrido[2,3-d]pyrimidine-2,7-diamine] | – | – | – | inhibition at 50 µM [1]: 10.3%; inhibition at 50 µM [2]: 23.6%

Further lines, with some results ahead:

Row | IC50 [1] | IC50 [2] | IC50 (C-src kinase; [3]) | Structure (SMILES) | other results
17 | 10200 nM | – | – | CN(C)C=Nc1ncc2cc(-c3c(Cl)cccc3Cl)c(N=CN(C)C)nc2n1 [Example 80, N'-[6-(2,6-Dichlorophenyl)-7-[(dimethylamino)methylene-amino]-pyrido[2,3-d]pyrimidin-2-yl]-N,N-dimethylformamidine] | inhibition at 50 µM [2]: 22.9%
18 | 17600 nM | – | – | Cc1cc(C)cc(-c2cc3cnc(N)nc3nc2N)c1 [Example 94, 6-(3,5-Dimethyl-phenyl)-pyrido[2,3-d]pyrimidine-2,7-diamine] | inhibition at 50 µM [2]: 11.5%
19 | 3840 nM | 27400 nM | – | Cc1cc(C)c(-c2cc3cnc(N)nc3nc2N)c(C)c1 [Example 96, 6-(2,4,6-Trimethyl-phenyl)-pyrido[2,3-d]pyrimidine-2,7-diamine] | –
20 | 5320 nM | 36700 nM | – | Nc1ncc2cc(-c3c(Cl)cccc3Br)c(N)nc2n1 [Example 104, 6-(2-Bromo-6-chloro-phenyl)-pyrido[2,3-d]pyrimidine-2,7-diamine] | –
21 | 126 nM | 1920 nM | – | CN1CCN(CCCNc2ncc3cc(-c4c(Cl)cccc4Cl)c(NC(=S)NC(C)(C)C)nc3n2)CC1 [Example 118, 1-tert-Butyl-3-{6-(2,6-dichlorophenyl)-2-[3-(4-methyl-piperazin-1-yl)-propylamino]-pyrido[2,3-d]pyrimidin-7-yl}-thiourea] | –
22 | 7710 nM | 62400 nM | – | CCN(CC)C(=O)Nc1nc2nc(NCCCN3CCN(C)CC3)ncc2cc1-c1c(Cl)cccc1Cl [Example 119, 3-{6-(2,6-Dichlorophenyl)-2-[3-(4-methyl-piperazin-1-yl)-propylamino]-pyrido[2,3-d]pyrimidin-7-yl}-1,1-diethyl-urea] | –
23 | 142 nM | – | – | Cc1cc(C)c(C)c(-c2cc3cnc(NCCCN4CCN(C)CC4)nc3nc2NC(=O)NC(C)(C)C)c1C [Example 121, 1-tert-Butyl-3-{2-[3-(4-methyl-piperazin-1-yl)-propylamino]-6-(2,3,5,6-tetramethyl-phenyl)-pyrido-[2,3-d]pyrimidin-7-yl}-urea] | inhibition at 50 µM [2]: 21.8%
24 | 171 nM | 1460 nM | – | CCN(CC)CCCCNc1ncc2cc(-c3c(Cl)cccc3Cl)c(NC(=S)NCCCN3CCOCC3)nc2n1 [Example 122, 1-[6-(2,6-Dichlorophenyl)-2-(4-diethylamino-butylamino)-pyrido[2,3-d]pyrimidin-7-yl]-3-(3-morpholin-4-yl-propyl)-thiourea] | –
